The test system of experiment [1] is L6-myotubes. Briefly: Glucose uptake in differentiated L6-myotubes (Biological Example 2). The format is cell-based. The note with it: glucose uptake in differentiated L6-myotubes; compound at 10 μM, activity relative to isoproterenol at 10 μM; read-out: Biological example 2 (GU). A digest of the protocol:
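Uptake was quantified as radioactivity in 0.2 M NaOH lysates after a 10 min pulse of 50 nM ^3H-2-deoxyglucose. The pulse followed two agonist exposures at 1×10^−5 M final (isoprenaline or test compound): 1 h 40 min, then 20 min in glucose-free medium after washing. L6 myotubes had been starved overnight in medium with 0.5% fatty-acid-free BSA.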

For experiment [2], the system named is L6-myotubes. The experiment is described as follows: Measurement of intracellular cAMP levels in differentiated L6-myotubes (Biological Example 3). The note with it: 0.25 h, intracellular cAMP in differentiated L6-myotubes; compound at 10 μM, activity relative to isoproterenol at 10 μM. The format is cell-based. Summed up:
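Intracellular cAMP quantified by AlphaScreen after ethanol extraction and lysis of L6 myotubes. Cells were serum-starved overnight, then exposed for 15 min to compound (final 1×10^−5 M) or isoprenaline in IBMX-containing (1 mM) HBSS buffer, pH 7.4.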
(In general: cAMP levels reflect the balance of adenylyl cyclase and phosphodiesterase activity.)

SMILES strings stand for the structures. Where only a bound is given, the exact number is not on record here.

Data on 25 compounds can be found in patent US20260216294A1, “BETA 2-ADRENERGIC RECEPTOR AGONISTS FOR TREATMENT OR PREVENTION OF MUSCLE WASTING” (ATROGI AB, priority 2023, published 2026).

For `CS(=O)(=O)N[C@H]1CC[C@@H](CNC[C@H](O)c2cccc(F)c2)CC1` [Compound 312, (R)-1-(m-fluorophenyl)-2-({[(1s,4S)-4-(mesylamino)cyclohexyl]methyl}amino)-1-ethanol], the Emax at 10 µM in the experiment on L6-myotubes [1] is 50 to 75%; with L6-myotubes [2] it was below 25%.
In the same order, the values of `CS(=O)(=O)N[C@H]1CC[C@H](CNC[C@H](O)c2cncc(F)c2)CC1` [Compound 313] are 25 to 50% and below 25%.
For `CS(=O)(=O)N[C@H]1CC[C@@H](CNC[C@H](O)c2cncc(F)c2)CC1` [Compound 314, (R)-1-(5-fluoro-3-pyridyl)-2-({[(1s,4S)-4-(mesylamino)cyclohexyl]methyl}amino)-1-ethanol] the same measures were 50 to 75% and below 25%.
As to `O=C(N[C@H]1CC[C@H](CNC[C@H](O)c2cccc(F)c2)CC1)c1ccccc1` [Compound 315, N-[(1R,4r)-4-{[(R)-2-(m-fluorophenyl)-2-hydroxyethylamino]methyl}cyclohexyl] benzamide], the Emax at 10 µM with L6-myotubes [1] is above 75%; with L6-myotubes [2], below 25%.
In the case of `O=C(N[C@H]1CC[C@@H](CNC[C@H](O)c2cccc(F)c2)CC1)c1ccccc1` [Compound 316], the Emax at 10 µM is 50 to 75% with L6-myotubes [1] and below 25% with L6-myotubes [2].
In the same order, the values of `O=C(N[C@H]1CC[C@H](CNC[C@H](O)c2cncc(F)c2)CC1)c1ccccc1` [Compound 317] are 50 to 75% and below 25%.
For `O=C(N[C@H]1CC[C@@H](CNC[C@H](O)c2cncc(F)c2)CC1)c1ccccc1` [Compound 318] the same measures were 50 to 75% and below 25%.
On to `CC(C)(CC[C@H]1CC[C@H](O)CC1)NC[C@H](O)c1ccccc1F` [Compound 319, (R)-2-{1,1-dimethyl-3-[(1r,4S)-4-hydroxycyclohexyl]propylamino}-1-(o-fluorophenyl)-1-ethanol], for which the results for the Emax at 10 µM with L6-myotubes [1] and in the experiment on L6-myotubes [2] were above 75% and below 25%, respectively.
In the same order, the values of `CC(C)(CC[C@H]1CC[C@@H](O)CC1)NC[C@H](O)c1ccccc1F` [Compound 320, (R)-2-{1,1-dimethyl-3-[(1s,4R)-4-hydroxycyclohexyl]propylamino}-1-(o-fluorophenyl)-1-ethanol] are above 75% and 25 to 50%.
For `COC(=O)[C@H]1CC[C@@H](C(C)(C)NC[C@H](O)c2cncc(F)c2)CC1` [Compound 321, (1S,4s)-8-[(R)-2-(5-fluoro-3-pyridyl)-2-hydroxyethylamino]-7-methoxy-p-menthan-7-one] the same measures were 50 to 75% and below 25%.
For `COC(=O)[C@H]1CC[C@@H](CC(C)(C)NC[C@H](O)c2cncc(F)c2)CC1` [Compound 322, methyl (1S,4s)-4-{2-[(R)-2-(5-fluoro-3-pyridyl)-2-hydroxyethylamino]-2-methylpropyl} cyclohexanecarboxylate] the same measures were above 75% and below 25%.
In the case of `CC(C)(NC[C@H](O)c1cncc(F)c1)[C@H]1CC[C@@H](C(=O)O)CC1` [Compound 323, (1S,4s)-8-[(R)-2-(5-fluoro-3-pyridyl)-2-hydroxyethylamino]-7-hydroxy-p-menthan-7-one], the Emax at 10 µM with L6-myotubes [1] is 25 to 50%; in the experiment on L6-myotubes [2], 50 to 75%.
For `CC(C)(C[C@H]1CC[C@@H](C(=O)O)CC1)NC[C@H](O)c1cncc(F)c1` [Compound 324, (1S,4s)-4-{2-[(R)-2-(5-fluoro-3-pyridyl)-2-hydroxyethylamino]-2-methylpropyl} cyclohexanecarboxylic acid] the same measures were 25 to 50% and below 25%.
Take `CO[C@H]1CC[C@H](C[C@@H]2CC[C@H]([C@@H](O)c3cccc(F)c3)N2)CC1` [Compound 325, (S)-[(2R,5S)-5-{[(1r,4S)-4-methoxycyclohexyl]methyl}-2-pyrrolidinyl](m-fluorophenyl)methanol]: the Emax at 10 µM with L6-myotubes [1] is above 75%; with L6-myotubes [2] it was below 25%.
As to `CO[C@H]1CC[C@H](C[C@@H]2CC[C@H]([C@H](O)c3cccc(F)c3)N2)CC1` [Compound 326, (R)-[(2R,5S)-5-{[(1r,4S)-4-methoxycyclohexyl]methyl}-2-pyrrolidinyl] (m-fluorophenyl)methanol], the Emax at 10 µM in the experiment with L6-myotubes [1] is above 75%; with L6-myotubes [2], below 25%.
As for `COC(=O)[C@H]1CC[C@@H](CC(C)(C)NC[C@H](O)c2cccc(F)c2)CC1` [Compound 327, methyl (1S,4s)-4-{2-[(R)-2-(m-fluorophenyl)-2-hydroxyethylamino]-2-methylpropyl} cyclohexanecarboxylate], the results for the Emax at 10 µM in the experiment with L6-myotubes [1] and with L6-myotubes [2] were above 75% and below 25%, respectively.
Turning to `COC(=O)[C@H]1CC[C@@H](C(C)(C)NC[C@H](O)c2cccc(F)c2)CC1` [Compound 328, (1S,4s)-8-[(R)-2-(m-fluorophenyl)-2-hydroxyethylamino]-7-methoxy-p-menthan-7-one], the Emax at 10 µM was above 75% with L6-myotubes [1] and below 25% in the experiment on L6-myotubes [2].
In the same order, the values of `COCC12CCC([C@@H](O)c3cccc(F)c3)(CC1)N2` [Compound 329, (S)-(m-fluorophenyl){4-(methoxymethyl)-7-azabicyclo[[2.2.1]]hept-1-yl}methanol] are 25 to 50% and below 25%.
For `COCC12CCC([C@H](O)c3cccc(F)c3)(CC1)N2` [Compound 330, (R)-(m-fluorophenyl){4-(methoxymethyl)-7-azabicyclo[[2.2.1]]hept-1-yl}methanol] the same measures were above 75% and below 25%.
For `CC(C)(C[C@H]1CC[C@@H](C(=O)O)CC1)NC[C@H](O)c1cccc(F)c1` [Compound 331, (1S,4s)-4-{2-[(R)-2-(m-fluorophenyl)-2-hydroxyethylamino]-2-methylpropyl} cyclohexanecarboxylic acid] the same measures were 25 to 50% and below 25%.
In the case of `CO[C@H]1CC[C@H](C[C@@H]2CC[C@H]([C@@H](O)c3cncc(F)c3)N2)CC1` [Compound 332], the Emax at 10 µM was 25 to 50% in the experiment on L6-myotubes [1] and below 25% in the experiment with L6-myotubes [2].
Turning to `CO[C@H]1CC[C@H](C[C@@H]2CC[C@H]([C@H](O)c3cncc(F)c3)N2)CC1` [Compound 333], the Emax at 10 µM in the experiment on L6-myotubes [1] was 25 to 50%; in the experiment with L6-myotubes [2] it was below 25%.
For `CO[C@H]1CC[C@H](C[C@H]2CC[C@H]([C@@H](O)c3cccc(F)c3)N2)CC1` [Compound 334, (S)-[(2R,5R)-5-{[(1r,4R)-4-methoxycyclohexyl]methyl}-2-pyrrolidinyl] (m-fluorophenyl)methanol], the Emax at 10 µM is 25 to 50% in the experiment on L6-myotubes [1] and below 25% in the experiment with L6-myotubes [2].
For `CO[C@H]1CC[C@H](C[C@H]2CC[C@H]([C@H](O)c3cccc(F)c3)N2)CC1` [Compound 335] the same measures were above 75% and below 25%.
As for `CO[C@H]1CC[C@H](C[C@@H]2CC[C@H]([C@@H](O)c3ccccc3F)N2)CC1` [Compound 336, (S)-[(2R,5S)-5-{[(1r,4S)-4-methoxycyclohexyl]methyl}-2-pyrrolidinyl] (o-fluorophenyl)methanol], the Emax at 10 µM was 25 to 50% in the experiment on L6-myotubes [1] and below 25% in the experiment with L6-myotubes [2].
